Tested on: HCV RNA replication
Experiment: RNA replication inhibition assay (luciferase reporter-linked HCV genome)
Details: Hepatitis C virus, percentage of untreated control population; for activity at 5 µM: read-out: Residual Luciferase activity, 5 micromolar; for activity at 10 µM: read-out: Residual Luciferase activity, 10 micromolar

Structure (SMILES) | activity at 5 µM | activity at 10 µM
CCCCCc1nc2ccccc2n1Cc1ccc(Cl)cc1 [Compound 116] | < 55% | < 20%
CCCCc1nc2ccccc2n1Cc1ccc(Cl)cc1 [Compound 117] | < 20% | < 20%
CC(C)Cc1nc2ccccc2n1Cc1ccc(Cl)cc1 [Compound 118] | < 55% | < 55%
CC(C)c1nc2ccccc2n1Cc1ccc(Cl)cc1 [Compound 119] | < 80% | < 55%
Clc1ccc(Cn2c(Cc3ccccc3)nc3ccccc32)cc1 [Compound 120] | < 80% | < 55%
CC(C)c1nc2ccccc2n1Cc1ccc(Cl)cc1Cl [Compound 121] | > 80% | < 20%
Clc1ccc(Cn2c(Cc3ccccc3)nc3ccccc32)c(Cl)c1 [Compound 122] | < 55% | < 55%
FC(F)(F)c1nc2ccccc2n1Cc1ccc(Cl)cc1 [Compound 123] | > 80% | < 80%
FC(F)(F)c1nc2ccccc2n1Cc1ccc(Cl)c(Cl)c1 [Compound 124] | < 55% | < 55%
Cc1nc2cc(Cl)ccc2n1Cc1ccccc1 [Compound 125] | < 80% | 
CC(=O)N(C)Cc1nc2ccccc2n1Cc1ccc(Cl)cc1Cl [Compound 126] | < 80% | < 55%
Clc1ccc(Cn2c(CN3CCOCC3)nc3ccccc32)cc1 [Compound 127] | < 55% | < 55%
Cc1cc2ncn(Cc3ccccc3)c2cc1C [Compound 128] | < 55% | < 55%
Cc1cc2ncn(Cc3ccc(F)cc3)c2cc1C [Compound 129] | > 80% | > 80%
Cc1cc2ncn(Cc3ccc(Cl)cc3Cl)c2cc1C [Compound 130] | < 55% | < 20%
Cc1cc2ncn(Cc3ccc(Cl)c(Cl)c3)c2cc1C [Compound 131] | < 80% | < 55%
NC1=NC2CCCCC2N1C(=O)c1ccc(Cl)cc1 (stereo not drawn) [Compound 132] | > 80% | > 80%
Nc1nc2ccccc2n1C(=O)c1ccc(Cl)cc1 [Compound 133] | > 80% | < 55%
Brc1ccc(Cn2cnc3ccccc32)cc1 [Compound 134] | < 55% | < 20%
Cc1nc2ccccc2n1Cc1ccc(Br)cc1 [Compound 135] | < 20% | < 20%
OCc1nc2ccccc2n1Cc1ccc(Br)cc1 [Compound 136] |  | < 55%
N#Cc1ccc(Cn2cnc3ccccc32)cc1 [Compound 137] | < 80% | < 80%
Cc1cc2ncn(Cc3ccc(C#N)cc3)c2cc1C [Compound 138] | < 80% | > 80%

Structure (SMILES) | activity at 5 µM | activity at 10 µM
COC(=O)c1ccc(Cn2cnc3ccccc32)cc1 [Compound 139] | < 80% | < 55%
COc1ccc(Cn2cnc3ccccc32)cc1OC [Compound 140] | < 20% | < 55%
CC(C)(C)c1ccc(Cn2cnc3ccccc32)cc1 [Compound 141] | < 55% | < 20%
Cc1ccc(Cn2cnc3ccccc32)cc1 [Compound 142] |  | < 55%
Oc1ccc(Cn2cnc3ccccc32)cc1 [Compound 143] | > 80% | < 80%
COc1ccc(Cn2cnc3ccccc32)cc1 [Compound 144] | < 55% | < 55%
Cc1cc2nc(/C=C/c3ccccc3)n(Cc3ccc(Cl)cc3)c2cc1C [Compound 145] | < 80% | < 20%
Cc1cc2c(ncn2Cc2ccccc2)c(N)c1C [Compound 146] | < 80% | < 80%
COc1ccc(Cn2c(C)nc3c(N)c(C)c(C)cc32)cc1 [Compound 147] | < 80% | < 80%
CS(=O)(=O)c1ccc2c(c1)ncn2Cc1ccccc1 [Compound 149] | > 80% | > 80%
CS(=O)(=O)c1ccc2c(c1)nc(C(F)(F)F)n2Cc1ccccc1 [Compound 150] | < 80% | < 55%
CCOC(=O)Cc1nc2cc(S(C)(=O)=O)ccc2n1Cc1ccccc1 [Compound 151] | < 80% | < 55%
CS(=O)(=O)c1ccc2c(c1)nc(S)n2Cc1ccccc1 [Compound 152] | < 80% | < 55%
CCOC(=O)CSc1nc2cc(S(C)(=O)=O)ccc2n1Cc1ccccc1 [Compound 153] | > 80% | < 80%
Cc1cc2ncn(Cc3cc(Cl)cc4c3OCCO4)c2cc1C [Compound 154] | < 80% | < 55%
Cc1ccc(Cn2c(C)nc3cc(C)c(C)cc32)cc1 [Compound 155] | < 55% | < 20%
Cc1cc2nc(CN3CCCC3)n(Cc3ccc(Cl)cc3)c2cc1C [Compound 156] | < 80% | < 55%
Clc1ccc(Cn2c(CN3CCCC3)nc3cc(Cl)c(Cl)cc32)cc1 [Compound 157] | < 80% | < 55%
Cc1cc2nc(-c3ccc[nH]c3=O)n(Cc3ccc(Cl)cc3)c2cc1C [Compound 158] | < 80% | < 80%
Cc1cc2nc(-c3ccc(=O)[nH]c3)n(Cc3ccc(Cl)cc3)c2cc1C [Compound 159] | < 80% | < 55%
COC(=O)c1ccc(Cn2c(/C=C/c3ccccc3)nc3cc(C)c(C)cc32)cc1 [Compound 160] | < 80% | < 20%
COC(=O)c1ccc(Cn2cnc3ccncc32)cc1 [Compound 161] | > 80% | > 80%
